According to ChEMBL document CHEMBL5696442, “Discovery of type II inhibitors of TGFβ-activated kinase 1 (TAK1) and mitogen-activated protein kinase kinase kinase kinase 2 (MAP4K2)” (J Med Chem, 2015):
Activity calls are given as the source filed them. The rule behind the calls is not given here.

How the values were obtained:
[1] = molecular target: Mitogen-activated protein kinase kinase kinase 12 (Homo sapiens) (UniProt Q12852); assay: Inhibition of DLK Lys2 labeling site harbouring in human A-375 cells at 0.05 uM by KiNativ Profiling analysis relative to control
[2] = molecular target: Tyrosine-protein kinase receptor UFO (Homo sapiens) (UniProt P30530); assay: Inhibition of AXL ACT labeling site in human A-375 cells at 5 uM by KiNativ Profiling analysis relative to control; assay type: cell-based
[3] = molecular target: Serine/threonine-protein kinase SMG1 (Homo sapiens) (UniProt Q96Q15); assay: Inhibition of SMG1 ATP labeling site in human Huh-7 cells at 1 uM by KiNativ Profiling analysis relative to control; assay type: cell-based
[4] = molecular target: T1, Mitogen-activated protein kinase kinase kinase 15 (Homo sapiens) (UniProt Q6ZN16); assay: Inhibition of MAP3K15 Lys1 labeling site harbouring IAIKEIPER in human A-375 cells at 0.05 uM by KiNativ Profiling analysis relative to control; assay type: cell-based
T1 sequence (whole entry): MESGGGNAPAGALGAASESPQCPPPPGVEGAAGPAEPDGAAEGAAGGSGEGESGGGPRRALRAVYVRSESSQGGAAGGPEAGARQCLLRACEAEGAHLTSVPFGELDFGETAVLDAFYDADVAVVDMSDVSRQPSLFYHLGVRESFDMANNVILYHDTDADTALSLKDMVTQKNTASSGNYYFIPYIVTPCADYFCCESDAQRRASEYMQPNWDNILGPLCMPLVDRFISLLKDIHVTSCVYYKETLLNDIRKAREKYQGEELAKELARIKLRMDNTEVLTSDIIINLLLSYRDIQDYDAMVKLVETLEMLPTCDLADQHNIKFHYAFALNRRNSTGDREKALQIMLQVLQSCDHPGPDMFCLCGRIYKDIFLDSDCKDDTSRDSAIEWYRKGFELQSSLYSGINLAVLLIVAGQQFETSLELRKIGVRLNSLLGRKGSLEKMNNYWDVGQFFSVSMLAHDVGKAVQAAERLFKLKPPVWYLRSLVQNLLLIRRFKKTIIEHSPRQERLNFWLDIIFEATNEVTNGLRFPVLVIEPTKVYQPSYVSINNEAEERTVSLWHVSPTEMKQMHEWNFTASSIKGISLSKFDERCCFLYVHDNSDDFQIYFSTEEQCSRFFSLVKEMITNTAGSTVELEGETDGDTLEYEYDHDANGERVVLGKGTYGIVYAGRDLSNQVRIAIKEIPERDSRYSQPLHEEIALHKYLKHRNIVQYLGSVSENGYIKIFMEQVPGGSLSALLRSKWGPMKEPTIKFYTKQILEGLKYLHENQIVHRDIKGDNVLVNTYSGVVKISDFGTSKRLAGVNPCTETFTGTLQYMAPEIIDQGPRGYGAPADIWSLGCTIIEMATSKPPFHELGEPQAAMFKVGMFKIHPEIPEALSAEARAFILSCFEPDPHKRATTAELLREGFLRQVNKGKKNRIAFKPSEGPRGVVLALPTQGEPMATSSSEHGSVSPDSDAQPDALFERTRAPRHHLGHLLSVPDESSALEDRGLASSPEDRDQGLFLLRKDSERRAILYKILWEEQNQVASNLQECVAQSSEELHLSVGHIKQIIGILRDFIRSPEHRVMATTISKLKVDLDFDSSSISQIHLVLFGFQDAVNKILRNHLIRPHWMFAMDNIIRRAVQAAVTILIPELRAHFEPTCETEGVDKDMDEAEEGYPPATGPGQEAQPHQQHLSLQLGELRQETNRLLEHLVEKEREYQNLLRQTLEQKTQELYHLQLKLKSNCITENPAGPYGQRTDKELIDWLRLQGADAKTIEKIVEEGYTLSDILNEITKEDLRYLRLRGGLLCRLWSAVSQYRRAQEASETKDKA

[5] = molecular target: Serine/threonine-protein kinase DCLK3 (Homo sapiens) (UniProt Q9C098); assay: Inhibition of DCAMKL3 (unknown origin) at 10 uM by Ambit Kinomescan binding assay
[6] = molecular target: Calcium/calmodulin-dependent protein kinase type IV (Homo sapiens) (UniProt Q16566); assay: Inhibition of CAMK4 (unknown origin) at 10 uM by Ambit Kinomescan binding assay
[7] = molecular target: Epidermal growth factor receptor (Homo sapiens) (UniProt P00533); assay: Inhibition of EGFR Lys1 labeling site in human A-375 cells at 0.05 uM by KiNativ Profiling analysis relative to control; assay type: cell-based
[8] = molecular target: T2, Serine/threonine-protein kinase D2 (Homo sapiens) (UniProt Q9BZL6); assay: Inhibition of PKD2 Lys2 labeling site in human Huh-7 cell lysate at 1 uM by KiNativ Profiling analysis relative to control; assay type: subcellular
T2 sequence (whole entry): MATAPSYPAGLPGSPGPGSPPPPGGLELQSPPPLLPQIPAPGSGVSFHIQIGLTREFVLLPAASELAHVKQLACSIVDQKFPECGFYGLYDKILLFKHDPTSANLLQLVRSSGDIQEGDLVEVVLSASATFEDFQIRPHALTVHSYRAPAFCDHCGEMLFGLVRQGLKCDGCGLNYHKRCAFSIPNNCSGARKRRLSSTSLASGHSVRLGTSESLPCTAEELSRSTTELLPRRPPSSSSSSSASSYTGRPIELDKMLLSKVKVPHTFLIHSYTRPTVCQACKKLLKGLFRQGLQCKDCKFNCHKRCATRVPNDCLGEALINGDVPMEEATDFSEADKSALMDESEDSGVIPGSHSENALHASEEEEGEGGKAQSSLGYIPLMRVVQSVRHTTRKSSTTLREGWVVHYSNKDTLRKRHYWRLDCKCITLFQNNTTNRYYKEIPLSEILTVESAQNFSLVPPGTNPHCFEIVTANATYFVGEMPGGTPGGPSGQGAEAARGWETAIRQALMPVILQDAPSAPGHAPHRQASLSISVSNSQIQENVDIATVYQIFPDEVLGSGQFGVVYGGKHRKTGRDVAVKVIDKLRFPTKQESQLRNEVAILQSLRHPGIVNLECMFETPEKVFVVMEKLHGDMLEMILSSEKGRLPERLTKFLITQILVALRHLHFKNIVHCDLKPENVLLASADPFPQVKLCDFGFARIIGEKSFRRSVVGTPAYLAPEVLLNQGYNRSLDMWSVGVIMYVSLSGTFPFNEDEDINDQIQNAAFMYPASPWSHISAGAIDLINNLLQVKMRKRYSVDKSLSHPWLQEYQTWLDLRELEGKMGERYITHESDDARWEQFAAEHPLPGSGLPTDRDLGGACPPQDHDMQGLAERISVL

[9] = molecular target: Serine/threonine-protein kinase 10 (Homo sapiens) (UniProt O94804); assay: Inhibition of LOK Lys2 labeling site harbouring IIHRDLKAGNVLMTLEGDIR in human Huh-7 cell lysate at 1 uM by KiNativ Profiling analysis relative to control; assay type: subcellular

Chain of Mitogen-activated protein kinase kinase kinase 12 (Homo sapiens) (Q12852 whole entry, looked up): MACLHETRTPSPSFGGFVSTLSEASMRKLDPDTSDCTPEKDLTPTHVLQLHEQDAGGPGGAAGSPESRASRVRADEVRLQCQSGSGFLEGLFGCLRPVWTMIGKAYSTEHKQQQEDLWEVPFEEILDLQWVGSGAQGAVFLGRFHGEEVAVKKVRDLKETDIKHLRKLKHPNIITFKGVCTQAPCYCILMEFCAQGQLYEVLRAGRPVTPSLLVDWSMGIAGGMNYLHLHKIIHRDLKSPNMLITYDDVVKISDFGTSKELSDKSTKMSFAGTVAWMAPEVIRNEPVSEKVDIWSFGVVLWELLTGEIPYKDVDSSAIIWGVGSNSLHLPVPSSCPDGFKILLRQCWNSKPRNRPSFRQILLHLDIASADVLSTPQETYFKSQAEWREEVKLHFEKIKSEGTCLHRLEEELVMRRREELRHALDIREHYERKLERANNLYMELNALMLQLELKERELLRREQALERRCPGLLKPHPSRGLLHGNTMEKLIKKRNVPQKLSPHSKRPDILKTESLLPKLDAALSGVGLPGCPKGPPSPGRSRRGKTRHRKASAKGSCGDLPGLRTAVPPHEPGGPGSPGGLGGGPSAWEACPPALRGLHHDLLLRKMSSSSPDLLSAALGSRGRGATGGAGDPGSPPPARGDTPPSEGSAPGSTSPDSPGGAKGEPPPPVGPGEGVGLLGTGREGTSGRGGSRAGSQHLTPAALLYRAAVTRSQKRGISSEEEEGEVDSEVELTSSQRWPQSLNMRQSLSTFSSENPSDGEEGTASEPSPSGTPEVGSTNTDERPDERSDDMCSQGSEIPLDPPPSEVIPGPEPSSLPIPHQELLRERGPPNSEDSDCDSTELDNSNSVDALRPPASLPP
Chain of Serine/threonine-protein kinase SMG1 (Homo sapiens) (Q96Q15 whole entry): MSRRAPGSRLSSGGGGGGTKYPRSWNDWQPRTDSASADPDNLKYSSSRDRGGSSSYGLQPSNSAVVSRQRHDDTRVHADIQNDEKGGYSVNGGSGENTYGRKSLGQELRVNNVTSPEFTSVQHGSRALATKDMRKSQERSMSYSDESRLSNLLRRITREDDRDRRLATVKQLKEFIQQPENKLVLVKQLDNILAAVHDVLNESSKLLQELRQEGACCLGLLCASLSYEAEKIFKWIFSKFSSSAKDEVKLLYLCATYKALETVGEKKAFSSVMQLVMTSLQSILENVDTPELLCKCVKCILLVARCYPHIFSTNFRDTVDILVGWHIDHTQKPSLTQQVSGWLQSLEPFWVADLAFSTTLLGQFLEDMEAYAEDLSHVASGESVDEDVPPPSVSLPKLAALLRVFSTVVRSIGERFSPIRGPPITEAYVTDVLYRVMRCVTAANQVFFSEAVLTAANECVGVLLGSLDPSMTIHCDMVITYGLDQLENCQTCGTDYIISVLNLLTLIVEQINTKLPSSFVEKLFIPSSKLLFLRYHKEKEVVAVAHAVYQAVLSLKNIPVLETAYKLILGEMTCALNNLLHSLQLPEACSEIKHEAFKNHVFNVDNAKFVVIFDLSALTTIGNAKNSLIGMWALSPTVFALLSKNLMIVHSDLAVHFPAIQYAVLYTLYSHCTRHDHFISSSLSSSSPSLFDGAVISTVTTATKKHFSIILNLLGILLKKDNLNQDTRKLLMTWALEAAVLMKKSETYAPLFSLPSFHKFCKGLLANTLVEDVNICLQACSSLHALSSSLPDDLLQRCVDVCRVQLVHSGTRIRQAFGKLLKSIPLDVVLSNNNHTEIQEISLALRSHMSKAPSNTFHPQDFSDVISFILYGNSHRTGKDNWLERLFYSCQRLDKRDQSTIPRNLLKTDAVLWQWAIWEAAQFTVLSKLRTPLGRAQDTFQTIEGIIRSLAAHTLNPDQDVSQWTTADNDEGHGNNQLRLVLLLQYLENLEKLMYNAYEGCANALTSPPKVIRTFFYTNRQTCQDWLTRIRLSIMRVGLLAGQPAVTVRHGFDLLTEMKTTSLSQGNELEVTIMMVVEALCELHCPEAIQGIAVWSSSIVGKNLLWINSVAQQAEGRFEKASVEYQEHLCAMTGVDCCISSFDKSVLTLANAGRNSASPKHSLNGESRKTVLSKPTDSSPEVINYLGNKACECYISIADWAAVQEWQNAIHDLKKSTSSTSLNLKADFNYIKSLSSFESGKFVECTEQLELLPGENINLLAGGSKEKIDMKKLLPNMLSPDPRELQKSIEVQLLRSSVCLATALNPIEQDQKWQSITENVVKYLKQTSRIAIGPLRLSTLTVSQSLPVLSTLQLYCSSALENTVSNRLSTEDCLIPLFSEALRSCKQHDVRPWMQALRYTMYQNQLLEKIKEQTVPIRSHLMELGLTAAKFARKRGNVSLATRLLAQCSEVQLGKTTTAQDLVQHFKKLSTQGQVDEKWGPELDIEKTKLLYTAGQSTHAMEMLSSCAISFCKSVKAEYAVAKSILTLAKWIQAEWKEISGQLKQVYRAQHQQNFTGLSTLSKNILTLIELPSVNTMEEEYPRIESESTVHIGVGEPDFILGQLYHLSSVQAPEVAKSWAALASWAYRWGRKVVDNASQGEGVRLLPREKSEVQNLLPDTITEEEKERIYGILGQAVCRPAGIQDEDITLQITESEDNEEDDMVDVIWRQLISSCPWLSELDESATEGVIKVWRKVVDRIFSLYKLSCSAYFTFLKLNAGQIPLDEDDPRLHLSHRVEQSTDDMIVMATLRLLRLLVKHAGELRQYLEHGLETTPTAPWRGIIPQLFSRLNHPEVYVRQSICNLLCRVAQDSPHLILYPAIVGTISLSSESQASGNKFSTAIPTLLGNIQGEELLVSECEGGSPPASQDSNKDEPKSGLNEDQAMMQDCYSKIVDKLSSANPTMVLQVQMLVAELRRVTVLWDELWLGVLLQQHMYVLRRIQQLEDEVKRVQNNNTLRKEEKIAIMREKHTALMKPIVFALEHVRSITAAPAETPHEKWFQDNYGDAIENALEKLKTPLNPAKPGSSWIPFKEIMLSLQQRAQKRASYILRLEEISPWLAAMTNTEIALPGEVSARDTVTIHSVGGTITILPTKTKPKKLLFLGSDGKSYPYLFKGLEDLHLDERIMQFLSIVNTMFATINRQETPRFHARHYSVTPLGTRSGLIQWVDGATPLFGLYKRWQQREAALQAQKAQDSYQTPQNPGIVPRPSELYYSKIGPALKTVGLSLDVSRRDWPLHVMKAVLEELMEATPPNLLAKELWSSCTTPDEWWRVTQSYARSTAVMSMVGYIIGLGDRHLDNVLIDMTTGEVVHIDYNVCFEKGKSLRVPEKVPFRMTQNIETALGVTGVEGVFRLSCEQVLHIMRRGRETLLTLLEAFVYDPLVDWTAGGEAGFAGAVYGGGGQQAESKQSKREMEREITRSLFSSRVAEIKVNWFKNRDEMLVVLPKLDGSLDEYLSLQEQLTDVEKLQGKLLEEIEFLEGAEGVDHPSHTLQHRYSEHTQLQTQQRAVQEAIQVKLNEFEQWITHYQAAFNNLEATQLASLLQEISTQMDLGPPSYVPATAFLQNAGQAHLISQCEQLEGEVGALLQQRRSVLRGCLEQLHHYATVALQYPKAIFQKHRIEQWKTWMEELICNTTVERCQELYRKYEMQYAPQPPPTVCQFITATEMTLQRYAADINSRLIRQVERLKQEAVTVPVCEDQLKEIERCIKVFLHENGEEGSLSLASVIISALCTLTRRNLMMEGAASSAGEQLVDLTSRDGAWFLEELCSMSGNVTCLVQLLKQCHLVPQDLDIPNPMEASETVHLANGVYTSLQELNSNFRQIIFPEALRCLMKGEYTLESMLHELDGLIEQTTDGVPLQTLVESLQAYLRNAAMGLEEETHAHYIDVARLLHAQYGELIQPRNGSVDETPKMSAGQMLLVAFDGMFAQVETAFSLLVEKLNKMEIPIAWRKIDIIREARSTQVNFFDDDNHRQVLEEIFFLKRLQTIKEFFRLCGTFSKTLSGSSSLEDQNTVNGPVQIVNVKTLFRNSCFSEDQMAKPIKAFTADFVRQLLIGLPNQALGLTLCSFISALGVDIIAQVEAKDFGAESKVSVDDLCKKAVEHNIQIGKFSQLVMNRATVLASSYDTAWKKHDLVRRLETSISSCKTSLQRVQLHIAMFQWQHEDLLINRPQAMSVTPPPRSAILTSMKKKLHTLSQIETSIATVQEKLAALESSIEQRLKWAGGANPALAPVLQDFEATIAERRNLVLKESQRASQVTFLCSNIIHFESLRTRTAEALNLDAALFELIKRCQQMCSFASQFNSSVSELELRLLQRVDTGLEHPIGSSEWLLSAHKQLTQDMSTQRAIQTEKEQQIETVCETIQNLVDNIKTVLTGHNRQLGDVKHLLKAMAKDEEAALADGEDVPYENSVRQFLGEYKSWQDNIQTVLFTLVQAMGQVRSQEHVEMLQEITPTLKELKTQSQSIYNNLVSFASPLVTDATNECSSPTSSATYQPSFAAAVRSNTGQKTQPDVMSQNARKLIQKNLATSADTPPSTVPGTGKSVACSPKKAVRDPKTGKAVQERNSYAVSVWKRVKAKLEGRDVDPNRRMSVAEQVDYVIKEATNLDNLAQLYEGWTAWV
Chain of Calcium/calmodulin-dependent protein kinase type IV (Homo sapiens) (Q16566 whole entry): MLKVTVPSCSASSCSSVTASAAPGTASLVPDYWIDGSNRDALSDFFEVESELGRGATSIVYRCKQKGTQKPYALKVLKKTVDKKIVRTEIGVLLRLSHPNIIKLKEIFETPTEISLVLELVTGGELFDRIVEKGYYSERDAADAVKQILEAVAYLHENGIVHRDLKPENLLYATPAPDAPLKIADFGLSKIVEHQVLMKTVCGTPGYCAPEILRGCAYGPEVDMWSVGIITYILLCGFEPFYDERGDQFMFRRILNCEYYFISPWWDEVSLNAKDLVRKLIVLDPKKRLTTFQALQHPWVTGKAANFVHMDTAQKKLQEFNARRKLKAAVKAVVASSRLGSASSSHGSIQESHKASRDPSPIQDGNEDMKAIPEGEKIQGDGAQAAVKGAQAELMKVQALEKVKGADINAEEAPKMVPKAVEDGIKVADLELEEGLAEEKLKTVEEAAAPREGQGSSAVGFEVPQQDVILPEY

`CCN1CCN(Cc2ccc(NC(=O)c3ccc(C)c(/C=C/c4cnc5[nH]ccc5c4OC)c3)cc2C(F)(F)F)CC1` showed an inhibition [1] of 9% and an inhibition [2] of -6.1%.
`CCN1CCN(Cc2ccc(NC(=O)c3ccc(C)c(Oc4ccnc5[nH]ccc45)c3)cc2C(F)(F)F)CC1` was tested, and the inhibition [3] was 13%, the inhibition [4] was 10.8% and the inhibition [5] was “inactive”. For the same compound, the inhibition [6] was “inactive” and the inhibition [7] was 11.7%.
Compound `CNc1cc(Oc2cc(C(=O)Nc3cc(N4CCN(C)CC4)cc(C(F)(F)F)c3)ccc2C)ncn1` has an inhibition [8] of -3.5% and an inhibition [9] of 12.3%.
